Assay results from ChEMBL document CHEMBL2074160, “Polyspecific drug and steroid clearance by an organic anion transporter of mammalian liver” (J Pharmacol Exp Ther, 1996).

Assays:
[1] = target: T1, Solute carrier organic anion transporter family member 1A1 (Rattus norvegicus, UniProt P46720); test: TP_TRANSPORTER: inhibition of Ouabain uptake (Ouabain: 100 uM, Estrone-3-glucuronide: 100 uM) in Xenopus laevis oocytes; type: functional, cell-based, Oocyte; set-up: scale not given: the % may be the effect or the level left; settings: probe Ouabain (100 uM), read-out: Activity
T1 sequence (P46720 whole entry): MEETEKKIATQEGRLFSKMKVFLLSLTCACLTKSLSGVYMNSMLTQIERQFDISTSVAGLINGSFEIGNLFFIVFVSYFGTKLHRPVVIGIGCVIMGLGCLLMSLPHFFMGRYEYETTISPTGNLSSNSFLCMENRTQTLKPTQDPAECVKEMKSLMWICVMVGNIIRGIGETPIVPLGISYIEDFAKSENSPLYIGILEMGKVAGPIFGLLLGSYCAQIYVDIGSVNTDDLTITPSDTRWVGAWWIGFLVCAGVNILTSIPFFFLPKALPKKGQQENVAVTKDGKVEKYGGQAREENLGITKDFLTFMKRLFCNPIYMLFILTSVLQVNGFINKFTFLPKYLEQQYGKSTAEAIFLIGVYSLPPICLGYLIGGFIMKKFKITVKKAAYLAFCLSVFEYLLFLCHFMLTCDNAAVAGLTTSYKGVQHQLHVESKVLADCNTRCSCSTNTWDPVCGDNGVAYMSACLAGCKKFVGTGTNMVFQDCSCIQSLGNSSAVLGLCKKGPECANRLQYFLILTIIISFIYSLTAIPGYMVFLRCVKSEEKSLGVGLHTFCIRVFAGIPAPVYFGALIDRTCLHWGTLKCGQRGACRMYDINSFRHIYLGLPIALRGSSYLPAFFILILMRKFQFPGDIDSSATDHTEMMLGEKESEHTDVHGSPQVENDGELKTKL

[2] = target: T1, Solute carrier organic anion transporter family member 1A1; test: TP_TRANSPORTER: inhibition of Ouabain uptake (Ouabain: 100 uM, Estradiol-3-glucuronide: 100 uM) in Xenopus laevis oocytes; type: functional, cell-based, Oocyte; set-up: scale not given: the % may be the effect or the level left; settings: probe Ouabain (100 uM), read-out: Activity
[3] = target: T1, Solute carrier organic anion transporter family member 1A1; test: TP_TRANSPORTER: inhibition of Ouabain uptake (Ouabain: 100 uM, Aldosterone: 100 uM) in Xenopus laevis oocytes; type: functional, cell-based; set-up: scale not given: the % may be the effect or the level left; settings: oocyte
[4] = target: T1, Solute carrier organic anion transporter family member 1A1; test: TP_TRANSPORTER: inhibition of Ouabain uptake (Ouabain: 100 uM, Corticosterone: 100 uM) in Xenopus laevis oocytes; type: functional, cell-based; set-up: scale not given: the % may be the effect or the level left; settings: oocyte
[5] = target: T1, Solute carrier organic anion transporter family member 1A1; test: TP_TRANSPORTER: inhibition of Ouabain uptake (Ouabain: 100 uM, Dexamethasone: 100 uM) in Xenopus laevis oocytes; type: functional, cell-based, Oocyte; set-up: scale not given: the % may be the effect or the level left; settings: probe Ouabain (100 uM), read-out: Activity
[6] = target: T1, Solute carrier organic anion transporter family member 1A1; test: (§1) TP_TRANSPORTER: uptake in Xenopus laevis oocytes; type: functional, cell-based, Oocyte
[7] = target: T1, Solute carrier organic anion transporter family member 1A1; test: TP_TRANSPORTER: inhibition of Ouabain uptake (Ouabain: 100 uM, Digitoxin: 100 uM) in Xenopus laevis oocytes; type: functional, cell-based, Oocyte; set-up: scale not given: the % may be the effect or the level left; settings: probe Ouabain (100 uM), read-out: Activity
[8] = target: T1, Solute carrier organic anion transporter family member 1A1; test: TP_TRANSPORTER: inhibition of Ouabain uptake (Ouabain: 100 uM, Digoxigenin: 100 uM) in Xenopus laevis oocytes; type: functional, cell-based, Oocyte; set-up: scale not given: the % may be the effect or the level left; settings: probe Ouabain (100 uM), read-out: Activity
[9] = target: T1, Solute carrier organic anion transporter family member 1A1; test: TP_TRANSPORTER: inhibition of Ouabain uptake (Ouabain: 100 uM, E217betaG: 100 uM) in Xenopus laevis oocytes; type: functional, cell-based, Oocyte; set-up: scale not given: the % may be the effect or the level left; settings: probe Ouabain (100 uM), read-out: Activity
[10] = target: T1, Solute carrier organic anion transporter family member 1A1; test: TP_TRANSPORTER: inhibition of Ouabain uptake (Ouabain: 100 uM, beta-Estradiol: 100 uM) in Xenopus laevis oocytes; type: functional, cell-based, Oocyte; set-up: scale not given: the % may be the effect or the level left; settings: probe Ouabain (100 uM), read-out: Activity
[11] = target: T1, Solute carrier organic anion transporter family member 1A1; test: TP_TRANSPORTER: inhibition of Ouabain uptake (Ouabain: 100 uM, E1S: 100 uM) in Xenopus laevis oocytes; type: functional, cell-based; set-up: scale not given: the % may be the effect or the level left; settings: oocyte
[12] = target: T1, Solute carrier organic anion transporter family member 1A1; test: TP_TRANSPORTER: inhibition of Ouabain uptake (Ouabain: 100 uM, Cortisol: 100 uM) in Xenopus laevis oocytes; type: functional, cell-based, Oocyte; set-up: scale not given: the % may be the effect or the level left; settings: probe Ouabain (100 uM), read-out: Activity
[13] = target: T1, Solute carrier organic anion transporter family member 1A1; test: TP_TRANSPORTER: inhibition of Ouabain uptake (Ouabain: 100 uM, ICG: 100 uM) in Xenopus laevis oocytes; type: functional, cell-based; set-up: scale not given: the % may be the effect or the level left; settings: oocyte
[14] = target: T1, Solute carrier organic anion transporter family member 1A1; test: TP_TRANSPORTER: inhibition of Ouabain uptake (Ouabain: 100 uM, Prednisolone: 100 uM) in Xenopus laevis oocytes; type: functional, cell-based, Oocyte; set-up: scale not given: the % may be the effect or the level left; settings: probe Ouabain (100 uM), read-out: Activity
[15] = target: T1, Solute carrier organic anion transporter family member 1A1; test: TP_TRANSPORTER: inhibition of Ouabain uptake (Ouabain: 100 uM, Prednisone: 100 uM) in Xenopus laevis oocytes; type: functional, cell-based; set-up: scale not given: the % may be the effect or the level left; settings: oocyte
[16] = target: T1, Solute carrier organic anion transporter family member 1A1; test: TP_TRANSPORTER: inhibition of Ouabain uptake (Ouabain: 100 uM, Rose bengal: 100 uM) in Xenopus laevis oocytes; type: functional, cell-based; set-up: scale not given: the % may be the effect or the level left; settings: oocyte
[17] = target: T1, Solute carrier organic anion transporter family member 1A1; test: TP_TRANSPORTER: inhibition of Ouabain uptake (Ouabain: 100 uM, BSP: 100 uM) in Xenopus laevis oocytes; type: functional, cell-based, Oocyte; set-up: scale not given: the % may be the effect or the level left; settings: probe Ouabain (100 uM), read-out: Activity
[18] = target: T1, Solute carrier organic anion transporter family member 1A1; test: TP_TRANSPORTER: inhibition of Ouabain uptake (Ouabain: 100 uM, Testosterone: 100 uM) in Xenopus laevis oocytes; type: functional, cell-based, Oocyte; set-up: scale not given: the % may be the effect or the level left; settings: probe Ouabain (100 uM), read-out: Activity
[19] = substrate: C[C@]12CC[C@@H]3c4ccc(O)cc4CC[C@H]3[C@@H]1CC[C@@H]2O[C@@H]1O[C@H](C(=O)O)[C@@H](O)[C@H](O)[C@H]1O; test: as §1; type: functional, cell-based, Oocyte
[20] = substrate: C[C@]12CCC(=O)C=C1CC[C@@H]1[C@@H]2[C@@H](O)C[C@@]2(C)[C@H]1CC[C@]2(O)C(=O)CO; test: as §1; type: functional, cell-based, Oocyte
[21] = substrate: C[C@]12CC[C@@H]3c4ccc(OS(=O)(=O)O)cc4CC[C@H]3[C@@H]1CCC2=O; test: as §1; type: functional, cell-based, Oocyte
[22] = substrate: C[C@]12CCC(=O)C=C1CC[C@@H]1[C@@H]2[C@@H](O)C[C@]2(C=O)[C@@H](C(=O)CO)CC[C@@H]12; test: as §1; type: functional, cell-based, Oocyte

C[C@]12CC[C@@H]3c4ccc(O[C@@H]5O[C@H](C(=O)O)[C@@H](O)[C@H](O)[C@H]5O)cc4CC[C@H]3[C@@H]1CCC2=O
activity at 100 µM [1]: 24%

C[C@]12CC[C@@H]3c4ccc(O[C@@H]5O[C@H](C(=O)O)[C@@H](O)[C@H](O)[C@H]5O)cc4CC[C@H]3[C@@H]1CC[C@@H]2O
activity at 100 µM [2]: 27%

C[C@]12CCC(=O)C=C1CC[C@@H]1[C@@H]2[C@@H](O)C[C@]2(C=O)[C@@H](C(=O)CO)CC[C@@H]12 [ALDOSTERONE]
Activity [3]: 10%

C[C@]12C[C@H](O)[C@H]3[C@@H](CCC4=CC(=O)CC[C@@]43C)[C@@H]1CC[C@@H]2C(=O)CO [CORTICOSTERONE]
Activity [4]: 15%

C[C@@H]1C[C@H]2[C@@H]3CCC4=CC(=O)C=C[C@]4(C)[C@@]3(F)[C@@H](O)C[C@]2(C)[C@@]1(O)C(=O)CO [DEXAMETHASONE]
activity at 100 µM [5]: 26% | Activity ([6]; oocyte): substrate [+]

C[C@H]1O[C@@H](O[C@H]2[C@@H](O)C[C@H](O[C@H]3[C@@H](O)C[C@H](O[C@H]4CC[C@@]5(C)[C@H](CC[C@@H]6[C@@H]5CC[C@]5(C)[C@@H](C7=CC(=O)OC7)CC[C@]65O)C4)O[C@@H]3C)O[C@@H]2C)C[C@H](O)[C@@H]1O [DIGITOXIN]
activity at 100 µM [7]: 29%

C[C@]12CC[C@H](O)C[C@H]1CC[C@@H]1[C@@H]2C[C@@H](O)[C@]2(C)[C@@H](C3=CC(=O)OC3)CC[C@]12O [DIGOXIGENIN]
activity at 100 µM [8]: 19%

C[C@]12CC[C@@H]3c4ccc(O)cc4CC[C@H]3[C@@H]1CC[C@@H]2O[C@@H]1O[C@H](C(=O)O)[C@@H](O)[C@H](O)[C@H]1O [ESTRADIOL 17B GLUCURONIDE]
activity at 100 µM [9]: 16%

C[C@]12CC[C@@H]3c4ccc(O)cc4CC[C@H]3[C@@H]1CC[C@@H]2O [ESTRADIOL]
activity at 100 µM [10]: 40%

C[C@]12CC[C@@H]3c4ccc(OS(=O)(=O)O)cc4CC[C@H]3[C@@H]1CCC2=O [ESTRONE SULFURIC ACID]
Activity [11]: 10%

C[C@]12CCC(=O)C=C1CC[C@@H]1[C@@H]2[C@@H](O)C[C@@]2(C)[C@H]1CC[C@]2(O)C(=O)CO [HYDROCORTISONE]
activity at 100 µM [12]: 19%

CC1(C)C(/C=C/C=C/C=C/C=C2/N(CCCCS(=O)(=O)[O-])c3ccc4ccccc4c3C2(C)C)=[N+](CCCCS(=O)(=O)[O-])c2ccc3ccccc3c21.[Na+] [INDOCYANINE GREEN]
Activity [13]: 6%

C[C@@H]1O[C@@H](O[C@H]2C[C@@H](O)[C@]3(CO)[C@H]4[C@H](O)C[C@]5(C)[C@@H](C6=CC(=O)OC6)CC[C@]5(O)[C@@H]4CC[C@]3(O)C2)[C@H](O)[C@H](O)[C@H]1O [OUABAIN]
Km ([6]; Xenopus laevis oocytes): 1700 µM

C[C@]12C=CC(=O)C=C1CC[C@@H]1[C@@H]2[C@@H](O)C[C@@]2(C)[C@H]1CC[C@]2(O)C(=O)CO [PREDNISOLONE]
activity at 100 µM [14]: 40%

C[C@]12C=CC(=O)C=C1CC[C@@H]1[C@@H]2C(=O)C[C@@]2(C)[C@H]1CC[C@]2(O)C(=O)CO [PREDNISONE]
Activity [15]: 34%

O=C([O-])c1c(Cl)c(Cl)c(Cl)c(Cl)c1-c1c2cc(I)c(=O)c(I)c-2oc2c(I)c([O-])c(I)cc12.[Na+].[Na+] [ROSE BENGAL SODIUM]
Activity [16]: 4%

O=C1OC(c2ccc(O)c(S(=O)(=O)O)c2)(c2ccc(O)c(S(=O)(=O)O)c2)c2c(Br)c(Br)c(Br)c(Br)c21 [SULFOBROMOPHTHALEIN SODIUM]
activity at 100 µM [17]: 6%

C[C@]12CC[C@H]3[C@@H](CCC4=CC(=O)CC[C@@]43C)[C@@H]1CC[C@@H]2O [TESTOSTERONE]
activity at 100 µM [18]: 16%

B1: Solute carrier organic anion transporter family member 1A1 (Rattus norvegicus) (protein)
chain: MEETEKKIATQEGRLFSKMKVFLLSLTCACLTKSLSGVYMNSMLTQIERQFDISTSVAGLINGSFEIGNLFFIVFVSYFGTKLHRPVVIGIGCVIMGLGCLLMSLPHFFMGRYEYETTISPTGNLSSNSFLCMENRTQTLKPTQDPAECVKEMKSLMWICVMVGNIIRGIGETPIVPLGISYIEDFAKSENSPLYIGILEMGKVAGPIFGLLLGSYCAQIYVDIGSVNTDDLTITPSDTRWVGAWWIGFLVCAGVNILTSIPFFFLPKALPKKGQQENVAVTKDGKVEKYGGQAREENLGITKDFLTFMKRLFCNPIYMLFILTSVLQVNGFINKFTFLPKYLEQQYGKSTAEAIFLIGVYSLPPICLGYLIGGFIMKKFKITVKKAAYLAFCLSVFEYLLFLCHFMLTCDNAAVAGLTTSYKGVQHQLHVESKVLADCNTRCSCSTNTWDPVCGDNGVAYMSACLAGCKKFVGTGTNMVFQDCSCIQSLGNSSAVLGLCKKGPECANRLQYFLILTIIISFIYSLTAIPGYMVFLRCVKSEEKSLGVGLHTFCIRVFAGIPAPVYFGALIDRTCLHWGTLKCGQRGACRMYDINSFRHIYLGLPIALRGSSYLPAFFILILMRKFQFPGDIDSSATDHTEMMLGEKESEHTDVHGSPQVENDGELKTKL
Km [19]: 3 µM | Km [20]: 13 µM | Km [21]: 4.5 µM | Km [22]: 0.015 µM
